Results taken from patent publication US8349880B2, “Bicyclic compounds for the reduction of beta-amyloid production” (Bristol-Myers Squibb Company, priority 2009, dated 2013).

Tested on: Aβ1-42 production
Assay: Cellular assay for inhibition of Aβ1-42 production (H4 APP751 SWE clone 8.20)
Format: cell-based
Conditions: 19 h, H4 APP751 SWE clone 8.20 cells, 19 h incubation; read-out: Activity Rating (Aβ42 cellular IC50, given as a number)
Experimental: Cellular assays for inhibition of Aβ1-40 and Aβ1-42 production
H4 cells stably transfected with APP751 containing the Swedish mutation (H4 APP751 SWE clone 8.20, developed at BMS) were maintained in log phase through twice weekly passage at a 1:20 split. For IC50 determinations, 30 μl cells (1.5×10^4 cells/well) in DMEM media containing 0.0125% BSA (Sigma A8412) were plated directly into 384-well compound plates (Costar 3709) containing 0.1 μl serially diluted compound in DMSO. Following incubation for 19 h in 5% CO2 at 37° C., plates were briefly centrifuged (1000 rpm, 5 min). A 10 μl aliquot from each well was transferred to a second assay plate (Costar 3709) for Aβ40 measurements. Antibody cocktails were freshly prepared by dilution into 40 mM Tris-HCl (pH 7.4) with 0.2% BSA and added to assay plates. For Aβ42 measurements, antibodies specific for the Aβ42 neoepitope (565, developed at BMS; conjugated to the Wallac reagent (Perkin Elmer)) and the N-terminal sequence of Aβ peptide (26D6, developed at SIBIA; conjugated to APC (Perkin Elmer)) were mixed and 20 μl of the mixture was added to each well of the incubated cell plate yielding a final concentration of 0.8 ng/well 565 and 75 ng/well 26D6. For the Aβ40 measurements, antibodies specific for the Aβ40 neoepitope (TSD, developed at BMS; conjugated to the Wallac reagent (Perkin Elmer)) and 26D6 as described above were mixed and 20 μl of the mixture was added to the 10 μl aliquots which had been removed previously from the cell plate yielding a final concentration of 1.6 ng/well TSD and 17.5 ng/well 26D6. Assay plates containing antibodies were sealed with aluminum foil and incubated overnight at 4° C. Signal was determined using a Viewlux counter (Perkin Elmer) and IC50 values determined using curve fitting in CurveMaster (Excel Fit based).

| Compound | IC50 |
| --- | --- |
| COc1cc(Nc2nc3n(n2)CC=CCC3(C)C)ccc1-n1cnc(Cl)c1 [Example 9, (Z)—N-(4-(4-chloro-1H-imidazol-1-yl)-3-methoxyphenyl)-9,9-dimethyl-8,9-dihydro-5H-[1,2,4]triazolo[1,5-a]azepin-2-amine 2,2,2-trifluoroacetate] | 110 nM |
| COc1cc(Nc2nc3c(s2)CCCC3c2ccccc2)ccc1-n1cnc(C)n1 (stereo not drawn) [Example 67, N-(3-methoxy-4-(3-methyl-1H-1,2,4-triazol-1-yl)phenyl)-4-phenyl-4,5,6,7-tetrahydrobenzo[d]thiazol-2-amine] | 19 nM |
| COc1cc(Nc2nc3n(n2)C[C@H](O)[C@H](O)CC3c2ccc(F)cc2)ccc1-n1cnc(Cl)c1 (relative stereo) [Example 63, rel-(6S,7R,9R)-2-(4-(4-chloro-1H-imidazol-1-yl)-3-methoxyphenylamino)-9-(4-fluorophenyl)-6,7,8,9-tetrahydro-5H-[1,2,4]triazolo azepine-6,7-diol 2,2,2-trifluoroacetate] | 140 nM |

Continued, values first:

| IC50 | Compound |
| --- | --- |
| 9 nM | COc1cc(Nc2nc3n(n2)CCCCC3c2ccc(F)cc2)ccc1-n1cnc(Cl)n1 (stereo not drawn) [Example 33, N-(4-(3-chloro-1H-1,2,4-triazol-1-yl)-3-methoxyphenyl)-9-(4-fluorophenyl)-6,7,8,9-tetrahydro-5H-[1,2,4]triazolo[1,5-a]azepin-2-amine 2,2,2-trifluoroacetate] |
| 64 nM | COc1cc(Nc2nc3n(n2)CCCCC3c2ccc(-n3cncn3)cc2)ccc1-n1cnc(Cl)c1 (stereo not drawn) [Example 172, 9-(4-(1H-1,2,4-triazol-1-yl)phenyl)-N-(4-(4-chloro-1H-imidazol-1-yl)-3-methoxyphenyl)-6,7,8,9-tetrahydro-5H-[1,2,4]triazolo[1,5-a]azepin-2-amine 2,2,2-trifluoroacetate] |

Same assay, conditions: 19 h, H4 APP751 SWE clone 8.20 cells, 19 h incubation; read-out: Activity Rating (based on Aβ42 cellular IC50 values)

| Compound | IC50 |
| --- | --- |
| Cc1ncnn1-c1ccc(Nc2nc3n(n2)CC[C@](C)(O)C[C@@H]3c2ccc(F)cc2)cc1F (relative stereo) [Example 150, rel-(7R,9R)-2-(3-fluoro-4-(5-methyl-1H-1,2,4-triazol-1-yl)phenylamino)-9-(4-fluorophenyl)-7-methyl-6,7,8,9-tetrahydro-5H-[1,2,4]triazolo[1,5-a]azepin-7-ol 2,2,2-trifluoroacetate] | 10 to 100 nM |
| COc1cc(Nc2nc3n(n2)CCCCC3c2ccc(OC(F)(F)F)cc2)c(F)cc1-n1cnc(C)n1 (stereo not drawn) [Example 175, N-(2-fluoro-5-methoxy-4-(3-methyl-1H-1,2,4-triazol-1-yl)phenyl)-9-(4-(trifluoromethoxy)phenyl)-6,7,8,9-tetrahydro-5H-[1,2,4]triazolo[1,5-a]azepin-2-amine] | 10 to 100 nM |
| Cc1ncn(-c2ccc(Nc3nc4n(n3)CCCC[C@@H]4c3ccc(OC(F)(F)F)cc3)cc2F)n1 (single isomer, unassigned) [Example 98] | 10 to 100 nM |
| Cc1ncn(-c2ccc(Nc3nc4n(n3)CCCC[C@H]4c3ccc(OC(F)(F)F)c(F)c3)cc2F)n1 (single isomer, unassigned) [Example 165] | 10 to 100 nM |
| COc1cc(Nc2nc3n(n2)CCCC[C@@H]3c2ccc(OC(F)(F)F)cc2)c(F)cc1-n1cnc(C)n1 (single isomer, unassigned) [Example 177] | 10 to 100 nM |
| COc1cc(Nc2nc3n(n2)CC=CCC3c2ccc(F)cc2)ccc1-n1cnc(Cl)c1 (stereo not drawn) [Example 1, (Z)—N-(4-(4-chloro-1H-imidazol-1-yl)-3-methoxyphenyl)-9-(4-fluorophenyl)-8,9-dihydro-5H-[1,2,4]triazolo[1,5-a]azepin-2-amine] | < 10 nM |
| COc1cc(Nc2nc3n(n2)C[C@H](O)[C@H](O)C[C@H]3c2ccc(F)cc2)ccc1-n1cnc(Cl)c1 (relative stereo) [Example 64, rel-(6S,7R,9S)-2-(4-(4-chloro-1H-imidazol-1-yl)-3-methoxyphenylamino)-9-(4-fluorophenyl)-6,7,8,9-tetrahydro-5H-[1,2,4]triazolo[1,5-a]azepine-6,7-diol 2,2,2-trifluoroacetate] | 10 to 100 nM |
| Cc1ncnn1-c1ccc(Nc2nc3n(n2)CCCCC3c2ccc(OCC(F)F)cc2)cc1F (stereo not drawn) [Example 119, 9-(4-(2,2-difluoroethoxy)phenyl)-N-(3-fluoro-4-(5-methyl-1H-1,2,4-triazol-1-yl)phenyl)-6,7,8,9-tetrahydro-5H-[1,2,4]triazolo[1,5-a]azepin-2-amine] | 10 to 100 nM |
| Cc1ncn(-c2c(F)cc(Nc3nc4n(n3)CCCCC4c3ccc(OC(F)(F)F)cc3)cc2F)n1 (stereo not drawn) [Example 108, N-(3,5-difluoro-4-(3-methyl-1H-1,2,4-triazol-1-yl)phenyl)-9-(4-(trifluoromethoxy)phenyl)-6,7,8,9-tetrahydro-5H-[1,2,4]triazolo[1,5-a]azepin-2-amine] | 10 to 100 nM |
| COc1cc(Nc2nc3n(n2)CCCC[C@H]3c2ccc(OC(F)(F)F)cc2)cc(F)c1-n1cnc(C)n1 (single isomer, unassigned) [Example 168] | 10 to 100 nM |
| Cc1ncn(-c2ccc(Nc3nc4n(n3)CC[C@](C)(O)C[C@@H]4c3ccc(F)cc3)cc2F)n1 (relative stereo) [Example 154, rel-(7R,9R)-2-(3-fluoro-4-(3-methyl-1H-1,2,4-triazol-1-yl)phenylamino)-9-(4-fluorophenyl)-7-methyl-6,7,8,9-tetrahydro-5H-[1,2,4]triazolo[1,5-a]azepin-7-ol 2,2,2-trifluoroacetate] | 10 to 100 nM |
| COc1cc(Nc2nc3c(s2)CC(N(C)C)CC3c2ccc(F)cc2)ccc1-n1cnc(Cl)c1 (stereo not drawn) [Example 78, N2-(4-(4-chloro-1H-imidazol-1-yl)-3-methoxyphenyl)-4-(4-fluorophenyl)-N6,N6-dimethyl-4,5,6,7-tetrahydrobenzo[d]thiazole-2,6-diamine] | 100 to 1000 nM |
| Cc1ncn(-c2ccc(Nc3nc4n(n3)CCCCC4c3ccc(F)cc3)cc2F)n1 (stereo not drawn) [Example 25, N-(3-fluoro-4-(3-methyl-1H-1,2,4-triazol-1-yl)phenyl)-9-(4-fluorophenyl)-6,7,8,9-tetrahydro-5H-[1,2,4]triazolo[1,5-a]azepin-2-amine] | 10 to 100 nM |

The next lines start with the values.

| IC50 | Compound |
| --- | --- |
| < 10 nM | COc1cc(Nc2nc3n(n2)CCCCC3c2ccc(Br)cc2)ccc1-n1cnc(Cl)c1 (stereo not drawn) [Example 170, 9-(4-bromophenyl)-N-(4-(4-chloro-1H-imidazol-1-yl)-3-methoxyphenyl)-6,7,8,9-tetrahydro-5H-[1,2,4]triazolo[1,5-a]azepin-2-amine] |
| < 10 nM | COc1cc(Nc2nc3n(n2)CCCCC3c2ccc(F)cc2)ccc1-n1cnc(Cl)c1 (stereo not drawn) [Example 16, N-(4-(4-Chloro-1H-imidazol-1-yl)-3-methoxyphenyl)-9-(4-fluorophenyl)-6,7,8,9-tetrahydro-5H-[1,2,4]triazolo[1,5-a]azepin-2-amine] |
| < 10 nM | COc1cc(Nc2nc3n(n2)CCCCC3c2ccc(OC(F)(F)F)cc2)ccc1-n1cnc(Cl)c1 (stereo not drawn) [Example 31, N-(4-(4-chloro-1H-imidazol-1-yl)-3-methoxyphenyl)-9-(4-(trifluoromethoxy)phenyl)-6,7,8,9-tetrahydro-5H-[1,2,4]triazolo[1,5-a]azepin-2-amine 2,2,2-trifluoroacetate] |
| < 10 nM | CCC1(O)CCn2nc(Nc3ccc(-n4cnc(Cl)c4)c(OC)c3)nc2C(c2ccc(F)cc2)C1 (stereo not drawn) [Example 146, 2-(4-(4-chloro-1H-imidazol-1-yl)-3-methoxyphenylamino)-7-ethyl-9-(4-fluorophenyl)-6,7,8,9-tetrahydro-5H-[1,2,4]triazolo[1,5-a]azepin-7-ol] |
| < 10 nM | COc1cc(Nc2nc3n(n2)CCCC[C@H]3c2cccc(Cl)c2)ccc1-n1cnc(Cl)c1 (single isomer, unassigned) [Example 54] |
| < 10 nM | COc1cc(Nc2nc3n(n2)CCCCC3c2cc(F)cc(F)c2)ccc1-n1cnc(Cl)c1 (stereo not drawn) [Example 38, N-(4-(4-chloro-1H-imidazol-1-yl)-3-methoxyphenyl)-9-(3,5-difluorophenyl)-6,7,8,9-tetrahydro-5H-[1,2,4]triazolo[1,5-a]azepin-2-amine] |
| < 10 nM | COc1cc(Nc2nc3n(n2)CCC(=O)CC3c2ccc(F)cc2)ccc1-n1cnc(Cl)c1 (stereo not drawn) [Example 137, 2-(4-(4-chloro-1H-imidazol-1-yl)-3-methoxyphenylamino)-9-(4-fluorophenyl)-8,9-dihydro-5H-[1,2,4]triazolo[1,5-a]azepin-7(6H)-one 2,2,2-trifluoroacetate] |
| < 10 nM | COc1cc(Nc2nc3n(n2)CCCC[C@@H]3c2cc(F)c(F)c(F)c2)ccc1-n1cnc(Cl)c1 (single isomer, unassigned) [Example 52] |

Same assay, conditions: H4 APP751 SWE clone 8.20 cells, 19 h incubation; read-out: Activity Rating (based on Aβ42 cellular IC50 values)

| IC50 | Compound |
| --- | --- |
| 10 to 100 nM | COc1cc(Nc2nc3n(n2)CCCC[C@@H]3c2ccc(OC(F)(F)F)cc2)ccc1-n1cnc(Cl)c1 (single isomer, unassigned) [Example 126] |
